Experimental data taken from paper PMC9495972, “Dissecting the Activity of Catechins as Incomplete Aldose Reductase Differential Inhibitors through Kinetic and Computational Approaches” (Biology, 2022).
Entries after “also recorded” stand apart in the source; their conditions may differ.

Columns and labels:
[1] = target: T1, human recombinant AKR1B1 (Homo sapiens, UniProt P15121); test: AKR1B1 activity inhibition, decrease in absorbance at 340 nm linked to NADPH oxidation; assay type: biochemical; details: for remaining activity at 800 µM: in the presence of 0.8 mM compound, read-out: residual activity; for IC50: 10 mU AKR1B1, 37 °C, pH 6.8, 95% CLs in text
T1 construct: made in house
Experimental: (§1) The AKR1B1 activity was determined at 37 °C, as previously described, monitoring the decrease in absorbance at 340 nm linked to NADPH oxidation (ε340 = 6.22 mM^−1·cm^−1) using a Biochrom Libra S60 spectrophotometer. The standard assay mixture (0.7 mL) contained 0.25 M sodium phosphate buffer pH 6.8, 0.18 mM NADPH, 0.4 M ammonium sulfate, 0.5 mM EDTA, and 4.7 mM GAL. One unit of enzyme activity is the amount of enzyme that catalyzes the conversion of 1 µmol of substrate/min in the above assay conditions.
IC50 values were determined by non-linear regression analysis using GraphPad Prism version 7.04 (GraphPad Software, San Diego, CA, USA). Values were obtained from at least six different inhibitors concentrations (each assayed at least in triplicate) and are reported with their 95% Confidence Limits (CLs). […] The final concentration of ethanol in the assay was never higher than 1%. […] The percentage of inhibition was calculated referring to an assay performed using the same solvent concentration in the absence of inhibitors.
(§2) The human recombinant AKR1B1 was expressed and purified to electrophoretic homogeneity, as previously described. […] The purified enzyme was stored at −80 °C in a 10 mM sodium phosphate buffer pH 7.0 containing 2 mM DTT and 30% (w/v) glycerol. Before use, AKR1B1 was extensively dialyzed against 10 mM sodium phosphate buffer pH 7.0.

[2] = target: T1, human recombinant AKR1B1; test: Inhibition kinetic analysis of AKR1B1-dependent reduction of L-idose, HNE and GSHNE; assay type: biochemical; details: for k+4: kinetic constant of ternary complex EIS to products; for Km: in the absence of inhibitors, read-out: KM of the substrate; for Km / kcat (k+2) of the substrate: at least 20 independent experiments; for kcat (k+2) of the substrate: in the absence of the inhibitor
Experimental: as §1, §2
The kinetic parameters ^appkcat and ^appKM were evaluated by non-linear regression analysis of rate measurements vs. substrate concentration according to Michaelis-Menten equation. The analysis was performed through GraphPad Prism 7.04 software by a non-linear “Robust Regression” analysis in which each point is individually weighted through iterative weighing of the smallest squares. The same approach was adopted to analyze the dependence of ^appkcat, ^appKM, and ^appKM/^appkcat from the concentration of the inhibitors [I], making use of previously derived equations [27] (see text).
The hyperbolic kinetic equation for an incomplete mixed type of inhibition analyzed with both branches of product formation at the steady state and with the inhibitor binding at equilibrium, was defined using the apparent kinetic parameters ^appKM and ^appkcat (Equations (1)–(3), see ref [27] for further details). (1) kappcat=Ki*k+2+k+4[I]/Ki*+[I] (2) appKM=KMKi*+(Ki*/KiKM+k+4/k+1)[I]+k+4/Kik+1[I]^2/Ki*+[I] (3) appKM/appkcat= KMKi*+(Ki*/KiKM+k+4/k+1)[I]+k+4/Kik+1[I]^2/Ki*k+2+k+4[I]
Thus, ^appkcat and ^appKM values emerging from non-linear regression analysis of primary data (Figure 3) were analyzed through non-linear regression using Equations (1) and (2), respectively. […] The above starting values of kcat and KM derived from at least 20 independent experiments in which kinetic parameters were measured in the absence of inhibitors. […] The k+4 values are reported in Table 1 as the average of values emerging from ^appKM/^appkcat versus [I] (Equation (3) or Equation (4)) and 1/^appkcat versus [I] (Equation (1)) plots.

[3] = test system: AKR1B1; details: cited from earlier work
[4] = test system: human AKR1B1; parameters: method as in PMID 32640594; details: in the absence of GCG; cited from earlier work
[5] = test system: human AKR1B1; test: Docking, MD simulations and MM-PBSA binding free energy evaluations
Experimental: The X-ray structure of human AKR1B1 in complex with D-glyceraldehyde and the NADP cofactor (PDB code 3V36), as well as the co-crystal structure of human AKR1B1 in complex with a nitrofuryl-oxadiazol inhibitor (PDB code 2IKH), were downloaded from the Protein Data Bank. Molecular docking calculations were performed with GOLD 5.1 (CCDC Software Ltd., Cambridge, UK) with the Piecewise Linear Potential (PLP) fitness function; both the two X-ray structures and the previously predicted protein–substrate complexes (i.e., AKR1B1-L-idose, AKR1B1-HNE, and AKR1B1-GSHNE) were employed as the protein. […] When protein–substrate complexes were used as the receptor, the ten top-scored clusters of solutions in which the ligand formed at least one H-bond with the substrate were selected as the best clusters of solutions, which were considered for further analyses.
Molecular dynamics (MD) simulations were performed with AMBER 20 [32] using the ff14SB force field. General Amber force field (GAFF) parameters were used for the ligands, the substrates, and the cofactor, whose partial charges were calculated with the AM1-BCC method as implemented in the Antechamber suite of AMBER 20 (University of California, San Francisco, CA, USA). […] Each analyzed complex was placed in a rectangular parallelepiped water box, using the TIP3P explicit solvent model for water, and solvated with a 15 Å water cap. […]

[6] = GSHNE reduction, calculated using k+2 109 ± 8 min^−1
[7] = HNE reduction, calculated using k+2 78 ± 4 min^−1
[8] = L-idose reduction, calculated using k+2 195 ± 6 min^−1

## Oc1cc(O)c2c(c1)O[C@H](c1ccc(O)c(O)c1)[C@H](O)C2 [EC, epicatechin]
[1]
  remaining activity at 800 µM: ~70%

## O=C(O[C@@H]1Cc2c(O)cc(O)cc2O[C@@H]1c1ccc(O)c(O)c1)c1cc(O)c(O)c(O)c1 [ECG, epicatechin gallate]
[1]; IC50 for GSHNE reduction, […] GSHNE as substrate
  IC50: 143 µM
[1]; IC50 for HNE reduction, 0.03 mM HNE as substrate
  IC50: 257 µM
[1]; IC50 for the reduction of L-idose, 8 mM L-idose as substrate
  IC50: 67 µM
[2]; GSHNE reduction
  Ki/Ki*: approximately 2
  inhibition type: mixed inhibition type
  k+4: 15.6 ± 4.3 min⁻¹
[2]; [6]
  k+4/k+2 (%): 14.3 ± 3.9%
[2]; [7]
  k+4/k+2 (%): 8.6 ± 0.4%
[2]; HNE reduction
  k+4: 6.7 ± 2.7 min⁻¹
[2]; Ki*, GSHNE reduction, apparent dissociation constant of ternary complex EIS
  Ki: 46 ± 11 µM
[2]; Ki*, HNE reduction, apparent dissociation constant of ternary complex EIS
  Ki: 54 ± 9 µM
[2]; Ki*, L-idose reduction, apparent dissociation constant of ternary complex EIS
  Ki: 46 ± 5 µM
[2]; Ki, GSHNE reduction, dissociation constant of enzyme-inhibitor complex
  Ki: 91 ± 10 µM
[2]; Ki, HNE reduction, dissociation constant of enzyme-inhibitor complex
  Ki: > 10000 µM
[2]; Ki, L-idose reduction, dissociation constant of enzyme-inhibitor complex
  Ki: 116 ± 8 µM
[2]; L-idose reduction
  inhibition type: mixed inhibition type
  k+4: 5.2 ± 3.2 min⁻¹
[2]; [8]
  k+4/k+2 (%): 2.7 ± 1.7%

## Oc1cc(O)c2c(c1)O[C@H](c1cc(O)c(O)c(O)c1)[C@H](O)C2 [EGC, epigallocatechin]
[3]
  inhibitory action on AKR1B1 (in words): inhibits AKR1B1 irrespective of the used substrate

## O=C(O[C@@H]1Cc2c(O)cc(O)cc2O[C@@H]1c1cc(O)c(O)c(O)c1)c1cc(O)c(O)c(O)c1 [EGCG, epigallocatechin gallate]
[3]
  inhibitory action on AKR1B1 (in words): preserved only HNE reduction; also recorded: act as ARDIs, even though not complete

## O=C(O)c1cc(O)c(O)c(O)c1 [GA, gallic acid]
[3]
  inhibitory action on AKR1B1 (in words): act as ARDIs, even though not complete

## Oc1cc(O)c2c(c1)O[C@H](c1cc(O)c(O)c(O)c1)[C@@H](O)C2 [GC, gallocatechin]
[1]
  remaining activity at 800 µM: ~70%

## O=C(O[C@@H]1Cc2c(O)cc(O)cc2O[C@H]1c1cc(O)c(O)c(O)c1)c1cc(O)c(O)c(O)c1 [GCG, gallocatechin gallate]
[2]; GSHNE reduction
  inhibition type: uncompetitive inhibition
  k+4: 6.0 ± 1.0 min⁻¹
[2]; [7]
  k+4/k+2 (%): 12.2 ± 1.1%
[2]; HNE reduction
  k+4: 9.5 ± 0.9 min⁻¹
[2]; L-idose reduction
  inhibition type: mixed inhibition type
  k+4: 5.6 ± 0.5 min⁻¹
[2]; [8]
  k+4/k+2 (%): 2.9 ± 0.25%

## CCCCCC(O)C(CC=O)SC[C@H](NC(=O)CC[C@H](N)C(=O)O)C(=O)NCC(=O)O (some centres unmarked) [GSHNE, 3-glutathionyl-4-hydroxynonanal adduct]
[2]
  Km: 120 ± 16 µM
  kcat (k+2) of the substrate: 1.82 ± 0.13 s⁻¹
[4]
  binding affinity estimated for the substrate bound to AKR1B1: -30.3 kcal/mol

## CCCCCC(O)/C=C/C=O (centres unmarked) [HNE, 4-hydroxynonenal]
[2]
  Km: 51 ± 5 µM
  kcat (k+2) of the substrate: 1.3 ± 0.067 s⁻¹
[4]
  binding affinity estimated for the substrate bound to AKR1B1: -18.6 kcal/mol

## O=C[C@H](O)[C@@H](O)[C@H](O)[C@@H](O)CO [L-idose]
[2]
  Km: 4260 ± 300 µM
  kcat (k+2) of the substrate: 3.25 ± 0.1 s⁻¹
[5]; due to the presence of GCG
  increase in the binding affinity of the substrate for the complex: 32%
[5]; presence versus absence of GCG
  lowering of substrate binding free energy with GCG versus without: 5.5 kcal/mol
[4]
  binding affinity estimated for the substrate bound to AKR1B1: -17.4 kcal/mol

## C[C@@H]1O[C@@H](O[C@H]2[C@H](O[C@H]3[C@H](O[C@H]4CC[C@@]5(C)[C@@H](CC[C@]6(C)[C@@H]5CC=C5[C@@H]7CC(C)(C)C[C@@H](O)[C@]7(C)CC[C@]56C)[C@@]4(C)CO)O[C@H](C(=O)O)[C@@H](O)[C@@H]3O)O[C@H](CO)[C@H](O)[C@@H]2O)[C@H](O)[C@H](O)[C@H]1O [soyasaponin Bb]
[3]
  inhibitory action on AKR1B1 (in words): acting as ARDI

## catechin gallate [CG]
[2]; GSHNE reduction
  inhibition type: uncompetitive inhibition
  k+4: 4.1 ± 0.8 min⁻¹
[2]; [6]
  k+4/k+2 (%): 3.8 ± 0.8%
[2]; [7]
  k+4/k+2 (%): approximately 6%
[2]; HNE reduction
  k+4: 4.7 ± 0.7 min⁻¹
[2]; L-idose reduction
  inhibition type: mixed inhibition type
  k+4: 1.4 ± 0.6 min⁻¹
[2]; [8]
  k+4/k+2 (%): 0.7 ± 0.3%
